In article PMC6681021 (Pharmaceutics, 2019):
Values joined by “and” are separate entries in the source; they are usually repeats but may differ in a detail not shown here. Identical values can stand only once. Like-named read-outs stand apart in the source and are kept apart here.

Key:
[1] = Pharmacokinetics after oral administration of tofacitinib to rats; type: in vivo, Sprague-Dawley rats; settings: for CL renal / Cmax / Tmax / bioavailability: male, Sprague-Dawley; for CL renal / Cmax / Tmax / bioavailability / AUC: rat; for CL renal: plasma and urine; for Cmax / Tmax / bioavailability / AUC: plasma; for bioavailability: dose-normalized oral AUC / AUC of 10 mg/kg iv, read-out: F (bioavailability); for Dose-normalized AUC: normalized to 10 mg/kg; for AUC: male Sprague-Dawley rats
Procedure: The pretreatment and surgical procedures for oral and intravenous administration were similar to those described previously. For oral administration, the rats were fasted overnight with free access to water. The rats were anesthetized with ketamine (200 mg/kg), and their carotid arteries were cannulated using polyethylene tubing (Clay Adams, Parsippany, NJ, USA) for blood sampling. For intravenous administration, the rats were anesthetized with ketamine (200 mg/kg), and their jugular veins and carotid arteries were cannulated for drug administration and blood sampling, respectively. Rats were allowed to recover for 4–5 h after surgical procedures. The rats were not restrained during the experimental period and had free access to water and food.
Blood samples (110–220 μL) were collected via the carotid artery at times 0 (prior to drug administration), 5, 15, 30, 45, 60, 90, 120, 180, 240, 360, 480, 600, and 720 min. Urine and gastrointestinal tract samples were also obtained over 24 h were processed as described above for the corresponding samples collected after intravenous administration.
Two microliters of hydrocortisone (5 mg/mL) and 40 μL of 20% ammonia solution were added to 100 μL aliquots of biological samples and vortex-mixed for 30 s using a vortex mixer. Each solution was extracted with 1.5 mL of ethyl acetate by centrifugation at 12,000 rpm for 5 min. The organic layer was collected and dried (Dry Thermobath, Eyela, Tokyo, Japan) under a gentle stream of nitrogen gas at 40 °C. The samples were reconstituted in 130 μL of 20% acetonitrile, and 50 μL of resuspended samples were analyzed by HPLC [12].
The mobile phase consisted of a 69.5:30.5 (v/v) mixture of 10 mM ammonium acetate buffer (pH 5.0) and acetonitrile, respectively, with a flow rate of 1.0 mL/min. Column effluent was monitored by a UV detector at 287 nm.
(§1) Pharmacokinetic parameters, including AUC, apparent volume of distribution at steady state (Vss), mean residence time (MRT), and time-averaged total body (CL), renal (CLR), and nonrenal (CLNR) clearances, were calculated by noncompartmental analysis (WinNonlin, Pharsight Corporation, Mountain View, CA, USA) using standard methods. AUC values were calculated using the trapezoidal rule–extrapolation method. The peak plasma concentration (Cmax) and time to reach Cmax (Tmax) were obtained directly from the experimental data. The mean values of clearance, terminal half-life, and Vss were calculated using the harmonic mean method.

[2] = Gastric and intestinal first-pass effect: intraportal infusion, intraduodenal and intragastric instillation in rats; type: in vivo, Sprague-Dawley rats
Procedure: Rats were fasted overnight with free access to water. Cannulae were inserted into the carotid artery and the cecal vein [13, 14]. […] All sample collection and processing procedures were identical to those described above.
as §1

[3] = Human pharmacokinetics of tofacitinib (literature); type: in vivo; settings: humans; 100–74%
[4] = cited from earlier work
[5] = 30-min intraportal infusion, 10 mg/kg (n = 6)
[6] = Sprague-Dawley, rat, plasma, 10 mg/kg, 30-min intraportal infusion, 10 mg/kg (n = 6)
[7] = Sprague-Dawley, rat, plasma, 10 mg/kg, intraduodenal instillation
[8] = Sprague-Dawley, rat, plasma, po, 10 mg/kg, intragastric instillation
[9] = Sprague-Dawley, rat, plasma, 30-min intraportal infusion, 10 mg/kg (n = 6)

Time to detection in plasma after oral administration ([1]; all four oral doses): ≤ 5 min
Ae0–24 h ([1]; all oral doses): less than 17.2%
F in rats ([1]; based on calculations using the same intravenous and oral doses): 29.1–33.8%
CL renal ([1]; oral 10 mg/kg): 11.6 ± 2.87 mL/min/kg
CL renal ([1]; oral 20 mg/kg): 6.97 ± 3.95 mL/min/kg
CL renal ([1]; oral 50 mg/kg): 7.61 ± 2.82 mL/min/kg
CL renal ([1]; oral 100 mg/kg): 3.37 ± 2.52 mL/min/kg
Cmax ([1]; oral 10 mg/kg): 1130 ± 774 ng/mL
Tmax ([1]; oral 10 mg/kg): 15.7 min
bioavailability ([1]; oral 10 mg/kg): 29.1%
Cmax ([1]; oral 20 mg/kg): 3130 ± 1270 ng/mL
Tmax ([1]; oral 20 mg/kg): 15.7 min
bioavailability ([1]; oral 20 mg/kg): 39.3%
Cmax ([1]; oral 50 mg/kg): 5620 ± 2180 ng/mL
Tmax ([1]; oral 50 mg/kg): 34.4 min
bioavailability ([1]; oral 50 mg/kg): 69.7%
Cmax ([1]; oral 100 mg/kg): 13100 ± 5480 ng/mL
Tmax ([1]; oral 100 mg/kg): 170 min
bioavailability ([1]; oral 100 mg/kg): 119%
Ae0–24 h ([1]; oral 10 mg/kg): 11.3 ± 4.60 % of dose
Orally administered dose absorbed from the gastrointestinal tract ([1]; oral 10 mg/kg): approximately 96.8%
Unabsorbed fraction (Funabs) ([1]; oral 10 mg/kg, at 24 h): 3.16%
Dose-normalized AUC ([1]; oral 10 mg/kg): 99.4 µg·min/mL and 99.4 ± 35.5 µg·min/mL
GI24 h (recovered unchanged from entire gastrointestinal tract at 24 h) ([1]; oral 10 mg/kg, 10 mg/kg): 3.16 % of dose and 3.16 ± 5.12 % of dose
Orally administered dose eliminated by first-pass metabolism ([1]; oral 10 mg/kg, 100% − (3.16% + 29.1%)): approximately 67.7%
Ae0–24 h ([1]; oral 20 mg/kg): 10.0 ± 6.51 % of dose
GI24 h (recovered unchanged from entire gastrointestinal tract at 24 h) ([1]; oral 20 mg/kg): 3.13 ± 3.27 % of dose
Dose-normalized AUC ([1]; oral 20 mg/kg): 135 µg·min/mL and 135 ± 26.9 µg·min/mL
Ae0–24 h ([1]; oral 50 mg/kg): 17.2 ± 3.98 % of dose
GI24 h (recovered unchanged from entire gastrointestinal tract at 24 h) ([1]; oral 50 mg/kg): 2.77 ± 3.96 % of dose
Dose-normalized AUC ([1]; oral 50 mg/kg): 238 µg·min/mL and 238 ± 56.0 µg·min/mL
Ae0–24 h ([1]; oral 100 mg/kg): 13.0± 9.47 % of dose
GI24 h (recovered unchanged from entire gastrointestinal tract at 24 h) ([1]; oral 100 mg/kg): 0.772± 0.905 % of dose
Dose-normalized AUC ([1]; oral 100 mg/kg): 407 µg·min/mL and 407 ± 179 µg·min/mL
Slope of plot of AUC versus dose ([1]; oral, dose and AUC ratios based on 10 mg/kg): 4.65
AUC ([1]; oral 10 mg/kg): 1660 ng·h/mL
AUC ([1]; oral 20 mg/kg): 4480 ng·h/mL
AUC ([1]; oral 50 mg/kg): 19900 ng·h/mL
AUC ([1]; oral 100 mg/kg): 67900 ng·h/mL
AUC after intraduodenal instillation as % of that after intraportal administration ([2]; 10 mg/kg): 50.7%
Ae0–24 h [2, 5]: 5.82 ± 2.32 % of dose
CLNR [2, 5]: 38.3 ± 6.16 mL/min/kg
Oral dose absorbed into the systemic circulation ([2]; 50.7–21.3%, 10 mg/kg): 29.4%
CL renal [2, 6]: 2.44 ± 1.23 mL/min/kg
Cmax [2, 6]: 5180 ± 586 ng/mL
Tmax [2, 6]: 27.5 min
AUC ([2]; Sprague-Dawley, rat, plasma, 10 mg/kg, 30-min intraportal infusion, 10 mg/kg (n = 6), fasted): 4530 ng·h/mL
AUC [2, 7]: 2300 ng·h/mL
CL renal [2, 7]: 5.72 ± 2.62 mL/min/kg
Cmax [2, 7]: 1550 ± 1930 ng/mL
Tmax [2, 7]: 38.8 min
AUC [2, 8]: 2230 ng·h/mL
CL renal [2, 8]: 7.08 ± 2.91 mL/min/kg
Cmax [2, 8]: 716 ± 255 ng/mL
Tmax [2, 8]: 63.8 min
MRT [2, 9]: 53 min
clearance [2, 9]: 38.4 ± 8.47 mL/min/kg
half-life ([2]; Sprague-Dawley, rat, plasma, 30-min intraportal infusion, 10 mg/kg (n = 6), read-out: Terminal half-life): 44.8 ± 14.2 min
Vd ([2]; Sprague-Dawley, rat, plasma, 30-min intraportal infusion, 10 mg/kg (n = 6), read-out: Vss): 1.9 ± 0.369 L/kg
Ae0–24 h ([2]; intraduodenal instillation, 10 mg/kg): 8.30 ± 5.10 % of dose
Ae0–24 h ([2]; intragastric instillation, 10 mg/kg): 8.90 ± 3.00 % of dose
Oral dose presumed first-pass metabolized in the intestine and the liver [3]: 26%
Structure (SMILES): C[C@@H]1CCN(C(=O)CC#N)C[C@@H]1N(C)c1ncnc2[nH]ccc12 [tofacitinib, 3-[(3R,4R)-4-methyl-3-[methyl-(7H-pyrrolo[2,3-day]pyrimidin-4-l)amino]piperidin-1-yl]-3-oxopropanenitril]
AUC of tofacitinib reduced in pretreated rats ([4]; pretreated with dexamethasone, inducer of CYP3A1/2): 56%
AUC of tofacitinib greater in pretreated rats ([4]; pretreated with fluconazole, inhibitor of CYP2C11): 39%
AUC of tofacitinib greater in pretreated rats ([4]; pretreated with ketoconazole, inhibitor of CYP3A1/2): 46%
AUC of tofacitinib reduced in pretreated rats ([4]; pretreated with rifampin, inducer of CYP2C11): 26%
